Common to all, as to assay: Test 1A glasshouse assay, post-emergence herbicidal activity
Holding throughout (format): in vivo

The subject of assay [1] is Alopecurus myosuroides (ALOMY). The settings on record: Alopecurus myosuroides, 312 h, application rate 250 g/ha, 13 days after application, visual (100%=total damage; 0%=no damage), read-out: Post-emergence Herbicidal Activity (% Phytotoxicity) ALOMY. The method, then:
(§1) Seeds of a variety of test species were sown in standard soil in pots. After cultivation for one day (pre-emergence) or after 8 days cultivation (post-emergence) under controlled conditions in a glasshouse (at 24/16° C., day/night; 14 hours light; 65% humidity), the plants were sprayed with an aqueous spray solution derived from the formulation of the technical active ingredient in acetone/water (50:50) solution containing 0.5% Tween 20 (polyoxyethelyene sorbitan monolaurate, CAS RN 9005-64-5). The test plants were then grown under controlled conditions in a glasshouse (at 24/16° C., day/night; 14 hours light; 65% humidity) and watered twice daily. 13 days after application of the test herbicide, for pre- and post-emergence, the test was evaluated visually for percentage phytotoxicity to the plant (where 100%=total damage to plant; 0%=no damage to plant).
(§2) Lolium perenne (LOLPE), Alopecurus myosuroides (ALOMY), Echinochloa crus-galli (ECHCG), and Avena fatua (AVEFA); these are all grassy monocotyledonous weeds.

The test system of another assay is Avena fatua (AVEFA). The conditions noted are these: Avena fatua, 312 h, application rate 250 g/ha, 13 days after application, visual (100%=total damage; 0%=no damage), read-out: Post-emergence Herbicidal Activity (% Phytotoxicity) AVEFA. The method, then:
as §1, §2

Assay [2] concerns Echinochloa crus-galli (ECHCG). The conditions noted are these: Echinochloa crus-galli, 312 h, application rate 250 g/ha, 13 days after application, visual (100%=total damage; 0%=no damage), read-out: Post-emergence Herbicidal Activity (% Phytotoxicity) ECHCG. The method, then: as §1, §2
The subject of a further assay is Lolium perenne (LOLPE). The conditions noted are these: Lolium perenne, 312 h, application rate 250 g/ha, 13 days after application, visual (100%=total damage; 0%=no damage), read-out: Post-emergence Herbicidal Activity (% Phytotoxicity) LOLPE. The method, then:
as §1, §2

Molecules are shown by their SMILES.

With `Cc1cc(C)c(C2C(=O)CC(CCNC(=O)c3n[nH]c4ccccc34)C2=O)c(C)c1` (stereo not drawn) [Compound A74], the pest or weed control at 250 g/ha in assay [1] turned out to be 90%; with Avena fatua (AVEFA), 30%; in assay [2] it was 70%; with Lolium perenne (LOLPE), 80%.

On to `Cc1cc(C)c(C2C(=O)CC(CCNC(=O)c3cc(C)n(C)n3)C2=O)c(C)c1` (stereo not drawn) [Compound A75], for which the pest or weed control at 250 g/ha (in assay [1]; in the assay with Avena fatua (AVEFA); in assay [2]; with Lolium perenne (LOLPE)) was 90% throughout.

Take `Cc1cc(C)c(C2C(=O)CC(CCNC(=O)c3c(C)nc4ccccn34)C2=O)c(C)c1` (stereo not drawn) [Compound A76]: the pest or weed control at 250 g/ha was 70% in assay [1], 90% in the assay with Avena fatua (AVEFA), 80% in assay [2] and 60% in the assay with Lolium perenne (LOLPE).

Regarding `Cc1cc(C)c(C2C(=O)CC(CCNC(=O)c3nn(C)cc3C(F)(F)F)C2=O)c(C)c1` (stereo not drawn) [Compound A77], the pest or weed control at 250 g/ha worked out at 70% in assay [1], 90% in the assay on Avena fatua (AVEFA), 90% in assay [2] and 90% in the assay with Lolium perenne (LOLPE).

Take `Cc1cc(C)c(C2C(=O)CC(CCNC(=O)c3nc(C)ncc3Br)C2=O)c(C)c1` (stereo not drawn) [Compound A78]: the pest or weed control at 250 g/ha in assay [1] is 80%; with Avena fatua (AVEFA), 80%; in assay [2], 80%; in the assay with Lolium perenne (LOLPE), 60%.

For the molecule `Cc1cc(C)c(C2C(=O)CC(CCNC(=O)c3sc(C)nc3C)C2=O)c(C)c1` (stereo not drawn) [Compound A79], the pest or weed control at 250 g/ha in assay [1] was 80%; with Avena fatua (AVEFA) it was 80%; in assay [2] it was 70%; in the assay on Lolium perenne (LOLPE) it was 70%.

Consider `CCc1cc(Br)cc(C)c1C1C(=O)CC(CCNC(=O)c2ccccn2)C1=O` (stereo not drawn) [Compound A83], for which the pest or weed control at 250 g/ha (in assay [1]; with Avena fatua (AVEFA); in assay [2]; in the assay with Lolium perenne (LOLPE)) was 100% in each case.

Take `CC#Cc1cc(C)c(C2C(=O)CC(CCNC(=O)c3ccccn3)C2=O)c(CC)c1` (stereo not drawn) [Compound A84, N-[2-[3-(2-ethyl-6-methyl-4-prop-1-ynyl-phenyl)-2,4-dioxo-cyclopentyl]ethyl]pyridine-2-carboxamide]: the pest or weed control at 250 g/ha (in assay [1]; in the assay with Avena fatua (AVEFA); in assay [2]; with Lolium perenne (LOLPE)) was 100% each time.

`C#Cc1cc(C)c(C2C(=O)CC(CCNC(=O)c3ccccn3)C2=O)c(CC)c1` (stereo not drawn) [Compound A85, N-[2-[3-(2-ethyl-4-ethynyl-6-methyl-phenyl)-2,4-dioxo-cyclopentyl]ethyl]pyridine-2-carboxamide]: the pest or weed control at 250 g/ha in assay [1] stood at 90%; with Avena fatua (AVEFA) it was 100%; in assay [2], 100%; in the assay with Lolium perenne (LOLPE) it was 100%.

On to `CCc1cc(-c2ccc(F)cc2)cc(C)c1C1C(=O)CC(CCNC(=O)c2ccccn2)C1=O` (stereo not drawn) [Compound A86, N-[2-[3-[2-ethyl-4-(4-fluorophenyl)-6-methyl-phenyl]-2,4-dioxo-cyclopentyl]ethyl]pyridine-2-carboxamide], for which the pest or weed control at 250 g/ha (in assay [1]; in the assay on Avena fatua (AVEFA); in assay [2]; in the assay with Lolium perenne (LOLPE)) was 100% in each case.

As to `CCC(CC1CC(=O)C(c2c(C)cc(C)cc2C)C1=O)NC(=O)c1ccccc1` (stereo not drawn) [Compound A88], the pest or weed control at 250 g/ha worked out at 80% in assay [1], 90% in the assay on Avena fatua (AVEFA), 100% in assay [2] and 100% in the assay on Lolium perenne (LOLPE).

Turning to `Cc1cc(C)c(C2C(=O)CC(CCNC(=O)c3cccc(F)n3)C2=O)c(C)c1` (stereo not drawn) [Compound A89A], the pest or weed control at 250 g/ha (in assay [1]; in the assay with Avena fatua (AVEFA); in assay [2]; in the assay with Lolium perenne (LOLPE)) was 100% each time.

In the case of `COc1cccc(C(=O)NCCC2CC(=O)C(c3c(C)cc(C)cc3C)C2=O)n1` (stereo not drawn) [Compound A91], the pest or weed control at 250 g/ha (in assay [1]; in the assay on Avena fatua (AVEFA); in assay [2]; in the assay on Lolium perenne (LOLPE)) was 80% each time.

In the case of `CCOc1cccc(C(=O)NCCC2CC(=O)C(c3c(C)cc(C)cc3C)C2=O)n1` (stereo not drawn) [Compound A92], the pest or weed control at 250 g/ha in assay [1] turned out to be 80%; with Avena fatua (AVEFA), 80%; in assay [2], 70%; with Lolium perenne (LOLPE) it was 70%.

As for `Cc1cc(C)c(C2C(=O)CC(CCNC(=O)c3cccc(-c4ccccc4)n3)C2=O)c(C)c1` (stereo not drawn) [Compound A93], the pest or weed control at 250 g/ha in assay [1] came out at 70%; in the assay with Avena fatua (AVEFA), 40%; in assay [2], 50%; with Lolium perenne (LOLPE), 70%.

On to `Cc1cc(C)c(C2C(=O)CC(CCNC(=O)c3cccc(C(F)(F)F)n3)C2=O)c(C)c1` (stereo not drawn) [Compound A94], for which the pest or weed control at 250 g/ha in assay [1] was 90%; in the assay with Avena fatua (AVEFA) it was 100%; in assay [2] it was 90%; in the assay on Lolium perenne (LOLPE), 80%.

With `Cc1cc(C)c(C2C(=O)CC(CCNC(=O)c3ncccc3F)C2=O)c(C)c1` (stereo not drawn) [Compound A96], the pest or weed control at 250 g/ha (in assay [1]; in the assay on Avena fatua (AVEFA); in assay [2]; in the assay with Lolium perenne (LOLPE)) was 100% in each case.

As to `Cc1cc(C)c(C2C(=O)CC(CCNC(=O)c3ccc(F)cn3)C2=O)c(C)c1` (stereo not drawn) [Compound A97], the pest or weed control at 250 g/ha (in assay [1]; in the assay on Avena fatua (AVEFA); in assay [2]; in the assay on Lolium perenne (LOLPE)) was 100% each time.

With `Cc1cc(-c2ncc(Cl)cc2F)cc(C)c1C1C(=O)CC(CCNC(=O)c2ccccn2)C1=O` (stereo not drawn) [Compound A102], the pest or weed control at 250 g/ha (in assay [1]; in the assay with Avena fatua (AVEFA); in assay [2]; in the assay on Lolium perenne (LOLPE)) was 100% throughout.

As to `Cc1cc(-c2ccc(Cl)cc2)cc(C)c1C1C(=O)CC(CCNC(=O)c2ccccn2)C1=O` (stereo not drawn) [Compound A104], the pest or weed control at 250 g/ha in assay [1] turned out to be 90%; with Avena fatua (AVEFA) it was 90%; in assay [2], 100%; in the assay with Lolium perenne (LOLPE), 100%.

Regarding `Cc1cc(Cl)c(C2C(=O)CC(CCNC(=O)c3ccccn3)C2=O)c(Cl)c1` (stereo not drawn) [Compound A105], the pest or weed control at 250 g/ha in assay [1] came to 40%; in the assay with Avena fatua (AVEFA) it was 90%; in assay [2] it was 100%; in the assay on Lolium perenne (LOLPE), 90%.

Regarding `O=C(NCCC1CC(=O)C(c2c(Cl)cc(-c3ccc(F)cc3)cc2Cl)C1=O)c1ccccn1` (stereo not drawn) [Compound A106], the pest or weed control at 250 g/ha amounted to 90% in assay [1], 100% in the assay on Avena fatua (AVEFA), 100% in assay [2] and 100% with Lolium perenne (LOLPE).

On to `Cc1cc(-c2cc(F)cc(F)c2)cc(C)c1C1C(=O)CC(CCNC(=O)c2ccccn2)C1=O` (stereo not drawn) [Compound A109], for which the pest or weed control at 250 g/ha (in assay [1]; with Avena fatua (AVEFA); in assay [2]; in the assay with Lolium perenne (LOLPE)) was 100% in each case.

As to `Cc1cc(-c2ccc(F)c(Cl)c2)cc(C)c1C1C(=O)CC(CCNC(=O)c2ccccn2)C1=O` (stereo not drawn) [Compound A110], the pest or weed control at 250 g/ha amounted to 90% in assay [1], 100% with Avena fatua (AVEFA), 100% in assay [2] and 100% in the assay with Lolium perenne (LOLPE).

`Cc1cc(-c2cccc(Cl)c2)cc(C)c1C1C(=O)CC(CCNC(=O)c2ccccn2)C1=O` (stereo not drawn) [Compound A111, N-[2-[3-[4-(3-chlorophenyl)-2,6-dimethyl-phenyl]-2,4-dioxo-cyclopentyl]ethyl]pyridine-2-carboxamide]: the pest or weed control at 250 g/ha (in assay [1]; with Avena fatua (AVEFA); in assay [2]; in the assay on Lolium perenne (LOLPE)) was 100% each time.

As for `CC#Cc1cc(C)c(C2C(=O)CC(CCNC(=O)c3cccc(F)n3)C2=O)c(C)c1` (stereo not drawn) [Compound A114], the pest or weed control at 250 g/ha (in assay [1]; in the assay on Avena fatua (AVEFA); in assay [2]; in the assay on Lolium perenne (LOLPE)) was 100% in each case.

`CC#Cc1cc(C)c(C2C(=O)CC(CCNC(=O)C(C)(C)C)C2=O)c(C)c1` (stereo not drawn) [Compound A115]: the pest or weed control at 250 g/ha (in assay [1]; with Avena fatua (AVEFA); in assay [2]; in the assay on Lolium perenne (LOLPE)) was 100% each time.

These data come from patent US9808003B2, “Herbicidally active 2-(substituted-phenyl)-cyclopentane-1,3-dione compounds and derivatives thereof” (Syngenta Limited, priority 2013, dated 2017).
